These results are taken from patent publication US5624950A, “Perhydroisoindole derivatives as substance P antagonists” (Rhone-Poulenc Rorer S.A., priority 1993, dated 1997).

The assay has as its system capillary permeability brought about by septide (substance P agonist). In words: inhibition of the increase of capillary permeability brought about by septide. The class given is in vivo. To be noted: Cavia porcellus, guinea pig, septide-induced capillary permeability. The text has this:
The study of certain isoindole derivatives of general formula (I) in the technique of A. Saria et al., Arch.

In general, ED50 refers to the dose that gives a 50% effect, or the effect in half of the subjects. Read a low ED50 as greater potency. Take `COc1ccccc1[C@H](C)C(=O)N1C[C@H]2C[C@H](C)C[C@](O)(c3ccccc3OC)[C@H]2C1` (relative stereo) [Example 1, (3aR*,4R*,6S*,7aS*)-4-(2-methoxyphenyl)-2-[2-(S)-(2-methoxyphenyl)propionyl]-6-methyl-4-perhydroisoindolol]: the ED50 reads like this: (iv) 0.07 mg/kg; (po) 3 to 10 mg/kg.
